This passage reports IC50 results from patent US20240360178A1, “MACROCYCLIC IMMUNOMODULATORS” (Bristol-Myers Squibb Company, priority 2021, published 2024).

Positions of bridges follow the written chain, without caps; N, C: chain ends. Non-standard residues stand in square brackets, D forms with d. Residues, ends and D or L forms follow the SMILES beside them. ξ: configuration not given here. *: point of attachment. Bip = N[C@@H](Cc1ccc(-c2ccccc2)cc1)C(=O)O; Phe(3-OMe) = COc1cccc(C[C@H](N)C(=O)O)c1; Phe(3-Me) = Cc1cccc(C[C@H](N)C(=O)O)c1; NMeF = CN[C@@H](Cc1ccccc1)C(=O)O; 4Pal = N[C@@H](Cc1ccncc1)C(=O)O; Cha = N[C@@H](CC1CCCCC1)C(=O)O; Carboxymethyl = O=C(O)C*; NMeA = CN[C@@H](C)C(=O)O; Orn = NCCC[C@H](N)C(=O)O; dNMeA = CN[C@H](C)C(=O)O; Dab = NCC[C@H](N)C(=O)O; Nva = CCC[C@H](N)C(=O)O; ξE = NC(CCC(=O)O)C(=O)O; Aib = CC(C)(N)C(=O)O; ξV = CC(C)C(N)C(=O)O; Sar = CNCC(=O)O

What is called IC50 is the point on the concentration scale where inhibition reaches its midpoint.

This experiment concerns the target T1, human PD-1 (Jurkat-PD-1 cells) / PE-labeled human PD-L1-Ig (Homo sapiens, UniProt Q15116).
T1 construct: expressed in transfected cells; host or cells: Jurkat cell line over-expressing human PD-1
The experiment in a line: Jurkat-PD-1 Cell Binding High-Content Screening Assay (CBA); Jurkat hPD1-PDL1 assay. The settings on record: Jurkat cell line over-expressing human PD-1; PE-labeled PD-L1-Ig 20 nM final; compound incubated 2 hours at 37° C.; read-out: Jurkat HPD1-PDL1 IC50. An outline of the steps:
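Compound was added to Jurkat-PD-1 cells in DMEM plus 10% fetal calf serum and incubated 2 hours at 37° C. Binding of phycoerythrin-conjugated PD-L1-Ig (20 nM final) to the cells was imaged.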

T1 sequence (Q15116 25-288): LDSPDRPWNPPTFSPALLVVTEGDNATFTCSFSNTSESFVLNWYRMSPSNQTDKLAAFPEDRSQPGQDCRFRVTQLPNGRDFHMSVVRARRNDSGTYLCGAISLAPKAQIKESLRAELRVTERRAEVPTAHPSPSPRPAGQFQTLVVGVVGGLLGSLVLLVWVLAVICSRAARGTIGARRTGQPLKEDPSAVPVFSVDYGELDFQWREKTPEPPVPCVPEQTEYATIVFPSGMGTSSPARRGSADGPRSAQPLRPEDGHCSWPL

For `CC(C)C1NC(=O)[C@H](Cc2c[nH]c3ccccc23)NC(=O)[C@H](CC(=O)O)NC(=O)[C@H](Cc2ccncc2)NC(=O)[C@H](Cc2ccc(OCC(=O)O)cc2)NC(=O)CSC[C@@H](C(=O)N[C@@H](C)C(N)=O)NC(=O)[C@H]([C@@H](C)O)NC(=O)[C@H](C(C)C)NC(=O)[C@H](CC2CCCCC2)NC(=O)[C@H](CCN)NC(=O)[C@H](Cc2ccccc2)N(C)C(=O)[C@H](CCCN)NC(=O)[C@H](CCC(=O)O)NC(=O)[C@H](Cc2ccc(-c3ccccc3)cc2)NC1=O` (stereo partly drawn) [Example 1440] ({CH2CO}-Y(Carboxymethyl)[4Pal]DW[ξV][Bip]E[Orn][NMeF][Dab][Cha]VTCA-NH2; thioether N-14), the IC50 turned out to be 70 nM.

Take `COc1cccc(C[C@@H]2NC(=O)[C@H](Cc3ccccc3)NC(=O)CSC[C@@H](C(=O)N[C@@H](C)C(N)=O)NC(=O)[C@H](CO)NC(=O)[C@H](C(C)C)NC(=O)[C@H](CC(C)C)NC(=O)[C@H](CC(N)=O)NC(=O)[C@H]3CCCN3C(=O)[C@H](C)N(C)C(=O)[C@H](C(C)C)NC(=O)[C@H](Cc3ccc(-c4ccccc4)cc3)NC(=O)[C@H](CC(C)C)NC(=O)[C@H](Cc3c[nH]c4ccccc34)NC(=O)[C@H](CC(=O)O)NC2=O)c1` [Example 1055] ({CH2CO}-F[Phe(3-OMe)]DWL[Bip]V[NMeA][dP]NLVSCA-NH2; thioether N-14): the IC50 worked out at 120 nM. Consider `CC(C)C[C@@H]1NC(=O)[C@H](Cc2c[nH]c3ccccc23)NC(=O)[C@H](CC(=O)O)NC(=O)[C@H](Cc2ccc(O)cc2)NC(=O)[C@H](Cc2ccccc2)NC(=O)CSC[C@@H](C(=O)NCC(N)=O)NC(=O)[C@H](CO)NC(=O)[C@H](C(C)C)NC(=O)[C@H](CC(C)C)NC(=O)[C@H](CC(N)=O)NC(=O)[C@@H](C)N(C)C(=O)[C@H](C)N(C)C(=O)[C@H](C(C)C)NC(=O)[C@H](Cc2ccc(-c3ccccc3)cc2)NC1=O` [Example 1082] ({CH2CO}-FYDWL[Bip]V[NMeA][dNMeA]NLVSCG-NH2; thioether N-14), for which the IC50 was 230 nM.

In the case of `CC(C)C[C@@H]1NC(=O)[C@H](Cc2c[nH]c3ccccc23)NC(=O)[C@H](CC(=O)O)NC(=O)[C@H](Cc2ccc(O)cc2)NC(=O)[C@H](Cc2ccccc2)NC(=O)CSC[C@@H](C(=O)NCC(N)=O)NC(=O)[C@H](CO)NC(=O)[C@H](C(C)C)NC(=O)[C@H](CC(C)C)NC(=O)[C@H](C(C)C)NC(=O)CN(C)C(=O)[C@H](C)N(C)C(=O)[C@H](CCCNC(=N)N)NC(=O)[C@H](Cc2ccc(-c3ccccc3)cc2)NC1=O` [Example 1232] ({CH2CO}-FYDWL[Bip]R[NMeA][Sar]VLVSCG-NH2; thioether N-14), the concentration for half-maximal inhibition (IC50) stood at 330 nM. With `CC(C)C[C@@H]1NC(=O)[C@H](CCCNC(=N)N)NC(=O)[C@H](Cc2ccccc2)N(C)C(=O)[C@H](C)N(C)C(=O)[C@H](CCCNC(=N)N)NC(=O)[C@H](Cc2ccc(-c3ccccc3)cc2)NC(=O)[C@H](C(C)C)NC(=O)[C@H](Cc2c[nH]c3ccccc23)NC(=O)[C@H](CC(=O)O)NC(=O)[C@H](Cc2ccc(O)cc2)NC(=O)[C@H](CCC(N)=O)NC(=O)CSC[C@@H](C(=O)NCC(N)=O)NC(=O)[C@H]([C@@H](C)O)NC(=O)[C@H](C(C)C)NC1=O` [Example 1311] ({CH2CO}-QYDWV[Bip]R[NMeA][NMeF]RLVTCG-NH2; thioether N-14) the figure was 750 nM; with `CC(C)C[C@@H]1NC(=O)[C@H](Cc2c[nH]c3ccccc23)NC(=O)[C@H](CC(=O)O)NC(=O)[C@H](Cc2ccc(O)cc2)NC(=O)[C@H](Cc2ccccc2)NC(=O)CSC[C@@H](C(=O)NCC(N)=O)NC(=O)[C@H]([C@@H](C)O)NC(=O)[C@H](C(C)C)NC(=O)[C@H](CC(C)C)NC(=O)[C@H](CCN)NC(=O)[C@H]2CCCN2C(=O)[C@H](C)N(C)C(=O)[C@H](C(C)C)NC(=O)[C@H](Cc2ccc(-c3ccccc3)cc2)NC1=O` [Example 1396] ({CH2CO}-FYDWL[Bip]V[NMeA][dP][Dab]LVTCG-NH2; thioether N-14), 70 nM; with `CC(C)C[C@@H]1NC(=O)[C@H](CCN)NC(=O)[C@H](Cc2ccccc2)N(C)C(=O)[C@H](C)N(C)C(=O)[C@H](CCC(=O)O)NC(=O)[C@H](Cc2ccc(-c3ccccc3)cc2)NC(=O)[C@H](C(C)C)NC(=O)[C@H](Cc2c[nH]c3ccccc23)NC(=O)[C@H](CC(=O)O)NC(=O)[C@H](Cc2ccc(O)cc2)NC(=O)[C@H](Cc2ccccc2)NC(=O)CSC[C@@H](C(=O)N[C@@H](C)C(N)=O)NC(=O)[C@H]([C@@H](C)O)NC(=O)[C@H](C(C)C)NC1=O` [Example 1342] ({CH2CO}-FYDWV[Bip]E[NMeA][NMeF][Dab]LVTCA-NH2; thioether N-14), 70 nM.

On to `CC(C)C[C@@H]1NC(=O)[C@H](CCCNC(=N)N)NC(=O)[C@H](Cc2ccccc2)N(C)C(=O)[C@H](C)N(C)C(=O)[C@H](CCCNC(=N)N)NC(=O)[C@H](Cc2ccc(-c3ccccc3)cc2)NC(=O)[C@H](C(C)C)NC(=O)[C@H](Cc2c[nH]c3ccccc23)NC(=O)[C@H](CC(=O)O)NC(=O)[C@H](Cc2ccc(O)cc2)NC(=O)[C@H](CC(N)=O)NC(=O)CSC[C@@H](C(=O)N[C@@H](C)C(N)=O)NC(=O)[C@H]([C@@H](C)O)NC(=O)[C@H](C(C)C)NC1=O` [Example 1355] ({CH2CO}-NYDWV[Bip]R[NMeA][NMeF]RLVTCA-NH2; thioether N-14), for which the IC50 was 410 nM.

As to `CC(C)C[C@@H]1NC(=O)C(CCC(=O)O)NC(=O)[C@H](Cc2ccccc2)N(C)C(=O)[C@H](C)N(C)C(=O)[C@H](CCCNC(=N)N)NC(=O)[C@H](Cc2ccc(-c3ccccc3)cc2)NC(=O)[C@H](C(C)C)NC(=O)[C@H](Cc2c[nH]c3ccccc23)NC(=O)[C@H](CC(=O)O)NC(=O)[C@H](Cc2ccc(O)cc2)NC(=O)[C@H](Cc2ccccc2)NC(=O)CSC[C@@H](C(=O)NCC(N)=O)NC(=O)[C@H](CO)NC(=O)[C@H](C(C)C)NC1=O` (stereo partly drawn) [Example 1221] ({CH2CO}-FYDWV[Bip]R[NMeA][NMeF][ξE]LVSCG-NH2; thioether N-14), the IC50 stood at 500 nM. With `CCC[C@H](NC(=O)[C@@H]1CSCC(=O)N[C@@H](Cc2ccccc2)C(=O)N[C@@H](Cc2ccc(O)cc2)C(=O)N[C@@H](CC(=O)O)C(=O)N[C@@H](Cc2c[nH]c3ccccc23)C(=O)N[C@@H](C(C)C)C(=O)N[C@@H](Cc2ccc(-c3ccccc3)cc2)C(=O)N[C@@H](CCCNC(=N)N)C(=O)N(C)[C@@H](C)C(=O)N(C)[C@@H](Cc2ccccc2)C(=O)N[C@@H](CCCNC(=N)N)C(=O)N[C@@H](CC(C)C)C(=O)N[C@@H](C(C)C)C(=O)N[C@@H](CO)C(=O)N1)C(N)=O` [Example 1329] ({CH2CO}-FYDWV[Bip]R[NMeA][NMeF]RLVSC[Nva]-NH2; thioether N-14) the figure was 260 nM. With `Cc1cccc(C[C@@H]2NC(=O)[C@H](CC(=O)O)NC(=O)[C@H](Cc3ccc(OCC(=O)O)cc3)NC(=O)[C@H](Cc3ccc(OCC(=O)O)cc3)NC(=O)CSC[C@@H](C(=O)N[C@@H](C)C(N)=O)NC(=O)[C@H](CO)NC(=O)[C@H](C(C)C)NC(=O)[C@H](CC(C)C)NC(=O)[C@H](CC(N)=O)NC(=O)[C@H]3CCCN3C(=O)[C@H](C)N(C)C(=O)[C@H](C(C)C)NC(=O)[C@H](Cc3ccc(-c4ccccc4)cc3)NC(=O)[C@H](CC(C)C)NC2=O)c1` [Example 1437] ({CH2CO}-Y(Carboxymethyl)Y(Carboxymethyl)D[Phe(3-Me)]L[Bip]V[NMeA][dP]NLVSCA-NH2; thioether N-14), the IC50 is 30 nM. In the case of `CC(C)C[C@@H]1NC(=O)[C@H](CCCNC(=N)N)NC(=O)[C@H](Cc2ccccc2)N(C)C(=O)[C@H](C)N(C)C(=O)[C@H](CCCNC(=N)N)NC(=O)[C@H](Cc2ccc(-c3ccccc3)cc2)NC(=O)[C@H](C(C)C)NC(=O)[C@H](Cc2c[nH]c3ccccc23)NC(=O)[C@H](CC(=O)O)NC(=O)[C@H](Cc2ccncc2)NC(=O)[C@H](CC(N)=O)NC(=O)CSC[C@@H](C(=O)N[C@@H](C)C(N)=O)NC(=O)[C@H]([C@@H](C)O)NC(=O)[C@H](C(C)C)NC1=O` [Example 1349] ({CH2CO}-N[4Pal]DWV[Bip]R[NMeA][NMeF]RLVTCA-NH2; thioether N-14), the IC50 turned out to be 330 nM. With `CC(C)C[C@@H]1NC(=O)[C@H](CCCNC(=N)N)NC(=O)[C@H](Cc2ccccc2)N(C)C(=O)[C@H](C)N(C)C(=O)[C@H](CCCNC(=N)N)NC(=O)[C@H](Cc2ccc(-c3ccccc3)cc2)NC(=O)[C@H](C(C)C)NC(=O)[C@H](Cc2c[nH]c3ccccc23)NC(=O)[C@H](CC(=O)O)NC(=O)[C@H](Cc2ccc(O)cc2)NC(=O)[C@H](Cc2ccccc2)NC(=O)CSC[C@@H](C(=O)NC(C)(C)C(N)=O)NC(=O)[C@H](CO)NC(=O)[C@H](C(C)C)NC1=O` [Example 1328] ({CH2CO}-FYDWV[Bip]R[NMeA][NMeF]RLVSC[Aib]-NH2; thioether N-14) the figure was 480 nM; with `CC(C)C[C@@H]1NC(=O)[C@H](CCCNC(=N)N)NC(=O)[C@H](Cc2ccccc2)N(C)C(=O)[C@H](C)N(C)C(=O)[C@H](CCCN)NC(=O)[C@H](Cc2ccc(-c3ccccc3)cc2)NC(=O)[C@H](C(C)C)NC(=O)[C@H](Cc2c[nH]c3ccccc23)NC(=O)[C@H](CC(=O)O)NC(=O)[C@H](Cc2ccc(O)cc2)NC(=O)[C@H](Cc2ccccc2)NC(=O)CSC[C@@H](C(=O)N[C@@H](C)C(N)=O)NC(=O)[C@H]([C@@H](C)O)NC(=O)[C@H](C(C)C)NC1=O` [Example 1346] ({CH2CO}-FYDWV[Bip][Orn][NMeA][NMeF]RLVTCA-NH2; thioether N-14), 310 nM. Then `CC(C)C[C@@H]1NC(=O)[C@H](Cc2c[nH]c3ccccc23)NC(=O)[C@H](CC(=O)O)NC(=O)[C@H](Cc2ccc(O)cc2)NC(=O)[C@H](Cc2ccccc2)NC(=O)CSC[C@@H](C(=O)NCC(N)=O)NC(=O)[C@H]([C@@H](C)O)NC(=O)[C@H](C(C)C)NC(=O)[C@H](CC(C)C)NC(=O)[C@H](CCN)NC(=O)[C@H]2CCCN2C(=O)[C@H](CCCN)NC(=O)[C@H](C(C)C)NC(=O)[C@H](Cc2ccc(-c3ccccc3)cc2)NC1=O` [Example 1420] ({CH2CO}-FYDWL[Bip]V[Orn][dP][Dab]LVTCG-NH2; thioether N-14), with 130 nM.
